According to article PMC11968843, “Sulphostin-inspired N-phosphonopiperidones as selective covalent DPP8 and DPP9 inhibitors” (Nature Communications, 2025):
Where “and” joins values, the source holds several entries; their conditions need not be identical. Equal values may be shown once.

Assays:
Experiment in all cases: Competitive ABPP / direct target identification with alkyne probe 9 in HEK293 cell lysates
Assay type in all cases: binding, H. sapiens
[1] = target: T1, HEK293 cell lysates (proteome-wide targets of probe 9) (Homo sapiens, UniProt P04075); settings: protein ALDOA
T1 construct: endogenous in cells; host or cells: HEK293 cell lysate

[2] = target: T2, HEK293 cell lysates (proteome-wide targets of probe 9) (Homo sapiens, UniProt P61247); settings: protein RPS3A
T2 construct: endogenous in cells; host or cells: HEK293 cell lysate

[3] = target: T3, HEK293 cell lysates (proteome-wide targets of probe 9) (Homo sapiens, UniProt Q12802); settings: protein AKAP13
T3 construct: endogenous in cells; host or cells: HEK293 cell lysate

[4] = target: T4, HEK293 cell lysates (proteome-wide targets of probe 9) (Homo sapiens, UniProt Q8NC51); settings: protein SERBP1
T4 construct: endogenous in cells; host or cells: HEK293 cell lysate

[5] = target: T5, HEK293 cell lysates (proteome-wide targets of probe 9) (Homo sapiens, UniProt Q14103); settings: protein HNRNPD
T5 construct: endogenous in cells; host or cells: HEK293 cell lysate

[6] = target: T6, HEK293 cell lysates (proteome-wide targets of probe 9) (Homo sapiens, UniProt P04259); settings: protein KRT6B
T6 construct: endogenous in cells; host or cells: HEK293 cell lysate

[7] = target: T7, HEK293 cell lysates (proteome-wide targets of probe 9) (Homo sapiens, UniProt P23528); settings: protein CFL1
T7 construct: endogenous in cells; host or cells: HEK293 cell lysate

[8] = target: T8, HEK293 cell lysates (proteome-wide targets of probe 9) (Homo sapiens, UniProt P00558); settings: protein PGK1
T8 construct: endogenous in cells; host or cells: HEK293 cell lysate

[9] = target: T9, HEK293 cell lysates (proteome-wide targets of probe 9) (Homo sapiens, UniProt P48147); settings: protein PREP (Prolyl endopeptidase)
T9 construct: endogenous in cells; host or cells: HEK293 cell lysate

[10] = target: T10, HEK293 cell lysates (proteome-wide targets of probe 9) (Homo sapiens, UniProt P00338); settings: protein LDHA
T10 construct: endogenous in cells; host or cells: HEK293 cell lysate

[11] = target: T11, HEK293 cell lysates (proteome-wide targets of probe 9) (Homo sapiens, UniProt Q9H6P5); settings: protein TASP1 (Threonine aspartase 1)
T11 construct: endogenous in cells; host or cells: HEK293 cell lysate

[12] = target: T12, HEK293 cell lysates (proteome-wide targets of probe 9) (Homo sapiens, UniProt Q5T749); settings: protein KPRP
T12 construct: endogenous in cells; host or cells: HEK293 cell lysate

[13] = target: T13, HEK293 cell lysates (proteome-wide targets of probe 9) (Homo sapiens, UniProt P63104); settings: protein YWHAZ
T13 construct: endogenous in cells; host or cells: HEK293 cell lysate

[14] = target: T14, HEK293 cell lysates (proteome-wide targets of probe 9) (Homo sapiens, UniProt Q6V1X1)
T14 construct: endogenous in cells; host or cells: HEK293 cell lysate

[15] = target: T15, HEK293 cell lysates (proteome-wide targets of probe 9) (Homo sapiens, UniProt P46782); settings: protein RPS5
T15 construct: endogenous in cells; host or cells: HEK293 cell lysate

[16] = target: T16, HEK293 cell lysates (proteome-wide targets of probe 9) (Homo sapiens, UniProt P53396); settings: protein ACLY
T16 construct: endogenous in cells; host or cells: HEK293 cell lysate

[17] = target: T17, HEK293 cell lysates (proteome-wide targets of probe 9) (Homo sapiens, UniProt P25398); settings: protein RPS12
T17 construct: endogenous in cells; host or cells: HEK293 cell lysate

[18] = target: T18, HEK293 cell lysates (proteome-wide targets of probe 9) (Homo sapiens, UniProt P11498); settings: protein PC
T18 construct: endogenous in cells; host or cells: HEK293 cell lysate

[19] = target: T19, HEK293 cell lysates (proteome-wide targets of probe 9) (Homo sapiens, UniProt Q14697); settings: protein GANAB
T19 construct: endogenous in cells; host or cells: HEK293 cell lysate

[20] = target: T20, HEK293 cell lysates (proteome-wide targets of probe 9) (Homo sapiens, UniProt P81605); settings: protein DCD
T20 construct: endogenous in cells; host or cells: HEK293 cell lysate

[21] = target: T21, HEK293 cell lysates (proteome-wide targets of probe 9) (Homo sapiens, UniProt P07737); settings: protein PFN1
T21 construct: endogenous in cells; host or cells: HEK293 cell lysate

[22] = target: T22, HEK293 cell lysates (proteome-wide targets of probe 9) (Homo sapiens, UniProt P50914); settings: protein RPL14
T22 construct: endogenous in cells; host or cells: HEK293 cell lysate

[23] = target: T23, HEK293 cell lysates (proteome-wide targets of probe 9) (Homo sapiens, UniProt P05387); settings: protein RPLP2
T23 construct: endogenous in cells; host or cells: HEK293 cell lysate

[24] = target: T24, HEK293 cell lysates (proteome-wide targets of probe 9) (Homo sapiens, UniProt Q96RQ3); settings: protein MCCC1
T24 construct: endogenous in cells; host or cells: HEK293 cell lysate

[25] = target: T25, HEK293 cell lysates (proteome-wide targets of probe 9) (Homo sapiens, UniProt P08238); settings: protein HSP90AB1
T25 construct: endogenous in cells; host or cells: HEK293 cell lysate

[26] = target: T26, HEK293 cell lysates (proteome-wide targets of probe 9) (Homo sapiens, UniProt Q02878); settings: protein RPL6
T26 construct: endogenous in cells; host or cells: HEK293 cell lysate

[27] = target: T27, HEK293 cell lysates (proteome-wide targets of probe 9) (Homo sapiens, UniProt P46776); settings: protein RPL27A
T27 construct: endogenous in cells; host or cells: HEK293 cell lysate

[28] = target: T28, HEK293 cell lysates (proteome-wide targets of probe 9) (Homo sapiens, UniProt P60174); settings: protein TPI1
T28 construct: endogenous in cells; host or cells: HEK293 cell lysate

[29] = target: T29, HEK293 cell lysates (proteome-wide targets of probe 9) (Homo sapiens, UniProt P22314); settings: protein UBA1
T29 construct: endogenous in cells; host or cells: HEK293 cell lysate

[30] = target: T30, HEK293 cell lysates (proteome-wide targets of probe 9) (Homo sapiens, UniProt P60842); settings: protein EIF4A1
T30 construct: endogenous in cells; host or cells: HEK293 cell lysate

[31] = target: T31, HEK293 cell lysates (proteome-wide targets of probe 9) (Homo sapiens, UniProt Q06830); settings: protein PRDX1
T31 construct: endogenous in cells; host or cells: HEK293 cell lysate

[32] = protein DPP8 (Dipeptidyl peptidase 8)

SMILES: C#CCCCP(=O)(OCC)N1CCCC(N)C1=O.O=C(O)C(F)(F)F (mixture of isomers) [Compound 9]
- Log2-fold change (9/DMSO) [1]: 0.3187
- Log2-fold change (9/DMSO) [2]: 0.9053
- Log2-fold change (9/DMSO) [3]: -0.9342
- Log2-fold change (9/DMSO) [4]: -0.5195
- Log2-fold change (9/DMSO) [5]: 1.662
- Log2-fold change (9/DMSO) [6]: -0.8544
- Log2-fold change (9/DMSO) [7]: 0.4225
- Log2-fold change (9/DMSO) [8]: -0.05307
- Log2-fold change (9/DMSO) [9]: 4.8
- Log2-fold change (9/DMSO) [10]: -0.2121
- Log2-fold change (9/DMSO) [11]: -4.505
- Log2-fold change (9/DMSO) [12]: -0.1834
- Log2-fold change (9/DMSO) [13]: 0.2647
- Initial LFQ intensity of DPP8 (log2-transformed) ([14]; labeled with 9, single replicates): 21.9345 and 21.2153 and 19.9933
- Log2-fold change (9/DMSO) [14, 32]: 1.124
- Log2-fold change (9/DMSO) [15]: 0.2495
- Log2-fold change (9/DMSO) [16]: 0.4032
- Log2-fold change (9/DMSO) [17]: -1.46
- Log2-fold change (9/DMSO) [18]: -0.6769
- Log2-fold change (9/DMSO) [19]: 0.2816
- Log2-fold change (9/DMSO) [20]: -2.5876
- Log2-fold change (9/DMSO) [21]: 0.6639
- Log2-fold change (9/DMSO) [22]: 0.6133
- Log2-fold change (9/DMSO) [23]: 0.606
- Log2-fold change (9/DMSO) [24]: -0.5895
- Log2-fold change (9/DMSO) [25]: 0.02806
- Log2-fold change (9/DMSO) [26]: 0.5143
- Log2-fold change (9/DMSO) [27]: -2.372
- Log2-fold change (9/DMSO) [28]: 0.2166
- Log2-fold change (9/DMSO) [29]: 0.5182
- Log2-fold change (9/DMSO) [30]: 0.03837
- Log2-fold change (9/DMSO) [31]: 0.4333

SMILES: CCCCCc1ccc(SCCP(=O)(OCC)N2CCC[C@H](N)C2=O)cc1.O=C(O)C(F)(F)F (stereo partly shown) [Compound 16]
- Log2-fold change (16/9) [1]: -0.5623
- Log2-fold change (16/9) [2]: -0.3832
- Log2-fold change (16/9) [3]: 0.6936
- Log2-fold change (16/9) [4]: -1.208
- Log2-fold change (16/9) [5]: -0.4231
- Log2-fold change (16/9) [6]: 1.89
- Log2-fold change (16/9) [7]: -0.1396
- Log2-fold change (16/9) [8]: 0.07234
- Log2-fold change (16/9) [9]: -0.8405
- Log2-fold change (16/9) [10]: 0.1049
- Log2-fold change (16/9) [11]: 0.8543
- Log2-fold change (16/9) [12]: 0.315
- Log2-fold change (16/9) [13]: 0.4135
- DPP8 identification after pre-incubation with competitor ([14]; labeled with 9, pre-incubated with competitor): peptides of DPP8 were identified
- Log2-fold change (16/9) [14, 32]: -1.618
- Log2-fold change (16/9) [15]: 0.301
- Log2-fold change (16/9) [16]: -0.4196
- Log2-fold change (16/9) [17]: 0.07588
- Log2-fold change (16/9) [18]: 0.1121
- Log2-fold change (16/9) [19]: 0.1876
- Log2-fold change (16/9) [20]: 2.05
- Log2-fold change (16/9) [21]: -2.001
- Log2-fold change (16/9) [22]: -1.54
- Log2-fold change (16/9) [23]: -0.0326
- Log2-fold change (16/9) [24]: 0.1036
- Log2-fold change (16/9) [25]: -0.3526
- Log2-fold change (16/9) [26]: 0.35
- Log2-fold change (16/9) [27]: 0.01928
- Log2-fold change (16/9) [28]: -0.0839
- Log2-fold change (16/9) [29]: -0.4211
- Log2-fold change (16/9) [30]: -1.788
- Log2-fold change (16/9) [31]: 0.107
